Source: patent publication US20150274777A1, “KETOAMIDE IMMUNOPROTEASOME INHIBITORS” (HOFFMANN-LA ROCHE INC., priority 2012, published 2015)

Columns and labels:
[1] = target: T1, β5i (Homo sapiens, UniProt P20618+P28062); assay: Cell-Based Proteasome Activity/Selectivity Assay (Ramos cells), substrate (ANW)2Rh110; conditions: highest concentration tested 20 μM, read-out: Ic50 ramos:ac-(anw)2-r110
T1 construct: protease activity associated with the proteasome complex in cultured cells; endogenous in cells; host or cells: Ramos cells
Summary of the method: (§1)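 Ramos cells (5×10^4/well in DPBS) were treated with 4-fold compound dilutions (top 20 μM) for 30 min at 37 °C. A 2× mix of 0.025% digitonin, 20 μM of each Rh110 substrate and 0.5 M sucrose was added, then incubated 120 min at room temperature. Rh110 fluorescence was read at 500/519 nm.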

[2] = target: T2, β1i (Homo sapiens, UniProt P28065+P40306); assay: Cell-Based Proteasome Activity/Selectivity Assay (Ramos cells), substrate (PAL)2Rh110; conditions: highest concentration tested 20 μM
T2 construct: protease activity associated with the proteasome complex in cultured cells; endogenous in cells; host or cells: Ramos cells
Summary of the method: as §1

[3] = test system: β2c/2i; assay: Cell-Based Proteasome Activity/Selectivity Assay (Ramos cells), substrate (KQL)2Rh110; conditions: highest concentration tested 20 μM
Summary of the method: as §1

[4] = target: T3, β1c (Homo sapiens, UniProt P28072+Q99436); assay: Cell-Based Proteasome Activity/Selectivity Assay (Ramos cells), substrate (LLE)2 Rh110; conditions: highest concentration tested 20 μM
T3 construct: protease activity associated with the proteasome complex in cultured cells; endogenous in cells; host or cells: Ramos cells
Summary of the method: as §1

[5] = target: T4, β5c (Homo sapiens, UniProt P20618+P28074); assay: Cell-Based Proteasome Activity/Selectivity Assay (Ramos cells), substrate (WLA)2Rh110; conditions: highest concentration tested 20 μM
T4 construct: protease activity associated with the proteasome complex in cultured cells; endogenous in cells; host or cells: Ramos cells
Summary of the method: as §1

[6] = test system: IP10 level in PBMCs stimulated with CpG Type A; assay: PBMC IP-10 Assay; format: cell-based; conditions: CpG Type A 2.5 μM
Summary of the method: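 Human PBMCs (~2×10^5/well) preincubated 60 min at 37° C. with titrated compound (1% DMSO final), then stimulated with CpG Type A (ODN 2216) at 2.5 μM final overnight. Supernatant IP-10 quantified by AlphaLISA; viability of remaining cells by ATP luminescence.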

| SMILES | IC50 [1] | IC50 [2] | IC50 [3] | IC50 [4] | IC50 [5] | EC50 [6] |
| --- | --- | --- | --- | --- | --- | --- |
| C[C@H](NC(=O)c1cc2ccccc2n1C)C(=O)N[C@@H](Cc1ccccc1)C(=O)N[C@@H](Cc1ccccc1)C(=O)C(=O)NCc1ccccc1 [Example 44, 1-Methyl-1H-indole-2-carboxylic acid {(S)-1-[(S)-1-((S)-1-benzyl-2-benzylcarbamoyl-2-oxo-ethylcarbamoyl)-2-phenyl-ethylcarbamoyl]-ethyl}-amide] | 13 nM | 13100 nM | > 20000 nM | > 20000 nM | 1240 nM | 596 nM |
| COc1ccc(C[C@H](NC(=O)[C@H](C)NC(=O)c2cc3ncccc3n2C)C(=O)N[C@@H](Cc2ccccc2)C(=O)C(=O)NCc2ccccc2)cc1 [Example 45] | 13 nM | 496 nM | > 20000 nM | 6380 nM | 250 nM | 1320 nM |
| COc1ccc(C[C@H](NC(=O)[C@H](C)NC(=O)CN2CCOCC2)C(=O)N[C@@H](Cc2ccccc2)C(=O)C(=O)NCc2ccccc2)cc1 [Example 46, (S)—N-Benzyl-3-{(S)-3-(4-methoxy-phenyl)-2-[(S)-2-(2-morpholin-4-yl-acetylamino)-propionylamino]-propionylamino}-2-oxo-4-phenyl-butyramide] | 121 nM | 2170 nM | > 20000 nM | > 20000 nM | 4410 nM | 5780 nM |
| Cc1cc(C(=O)N[C@@H](C)C(=O)N[C@@H](Cc2c[nH]c3ccccc23)C(=O)N[C@@H](Cc2ccccc2)C(=O)C(=O)NCc2ccccc2)no1 [Example 47, 5-Methyl-isoxazole-3-carboxylic acid {(S)-1-[(S)-1-((S)-1-benzyl-2-benzylcarbamoyl-2-oxo-ethylcarbamoyl)-2-(1H-indol-3-yl)-ethylcarbamoyl]-ethyl}-amide] | 34 nM | 705 nM | > 20000 nM | 6270 nM | 1390 nM | 2290 nM |
| CC1=C(C(=O)N[C@@H](C)C(=O)N[C@@H](Cc2c[nH]c3ccccc23)C(=O)N[C@@H](Cc2ccccc2)C(=O)C(=O)NCc2ccccc2)Cc2ccccc21 [Example 48, 3-Methyl-1H-indene-2-carboxylic acid {(S)-1-[(S)-1-((S)-1-benzyl-2-benzylcarbamoyl-2-oxo-ethylcarbamoyl)-2-(1H-indol-3-yl)-ethylcarbamoyl]-ethyl}-amide] | 8 nM | 1170 nM | > 20000 nM | 13600 nM | 1010 nM | 615 nM |
| COc1ccc(C[C@H](NC(=O)[C@H](C)NC(=O)c2cn3ccccc3n2)C(=O)N[C@@H](Cc2ccccc2)C(=O)C(=O)NCc2ccccc2)cc1 [Example 49, Imidazo[1,2-a]pyridine-2-carboxylic acid {(S)-1-[(S)-1-((S)-1-benzyl-2-benzylcarbamoyl-2-oxo-ethylcarbamoyl)-2-(4-methoxy-phenyl)-ethylcarbamoyl]-ethyl}-amide] | 105 nM | 499 nM | > 20000 nM | 17500 nM | 1930 nM | 4370 nM |
| C[C@H](NC(=O)OCc1ccccc1)C(=O)N[C@@H](Cc1ccccn1)C(=O)N[C@@H](Cc1ccccc1)C(=O)C(=O)NCc1ccccc1 [Example 50, {(S)-1-[(S)-1-((S)-1-Benzyl-2-benzylcarbamoyl-2-oxo-ethylcarbamoyl)-2-pyridin-2-yl-ethylcarbamoyl]-ethyl}-carbamic acid benzyl ester] | 266 nM | 1280 nM | > 20000 nM | > 20000 nM | 2890 nM | 2740 nM |
| C[C@H](NC(=O)OCc1ccccc1)C(=O)N[C@@H](Cc1ccc(Cl)cc1)C(=O)N[C@@H](Cc1ccccc1)C(=O)C(=O)NCc1ccccc1 [Example 51, {(S)-1-[(S)-1-((S)-1-Benzyl-2-benzylcarbamoyl-2-oxo-ethylcarbamoyl)-2-(4-chloro-phenyl)-ethylcarbamoyl]-ethyl}-carbamic acid benzyl ester] | 21 nM | 9840 nM | > 20000 nM | > 20000 nM | 5180 nM | 2590 nM |
